{
  "source": "patent US20200384161A1",
  "about": "“COMPOSITE ANTI-RESTENOSIS DRUG FOR CORONARY DRUG-ELUTING STENT AND CONTROLLED RELEASE SYSTEM THEREOF” (XINXIN MEDICAL TECHNOLOGY (SHANGHAI) CO. LTD, priority 2017, published 2020)",
  "key": {"[1]": {"test_system": "primary smooth muscle cells of porcine coronary vessels", "assay": "In vitro effect of arsenic trioxide on primary porcine coronary vascular smooth muscle cells (total cell number)", "format": "cell-based", "from_the_text": "(§1) FIGS. 1 and 2 show the effects of arsenic trioxide on primary smooth muscle cells and primary endothelial cells of porcine coronary vessels in in vitro experiments. In the figures, the vertical axis represents the total number of cells in the wells of the culture plate, and the horizontal axis represents the concentration of the arsenic trioxide solution. Each curve represents the effect of arsenic trioxide at various concentrations on apoptosis (decrease in total number of cells) at a given time. […] However, for smooth muscle cells, cells apoptosis began even at low concentrations (3 μM) from Day 2 (FIG. 1). […] Arsenic trioxide may induce apoptosis of smooth muscle cells while having poor inhibitory effect on endothelial cells or even promoting their growth."}, "[2]": {"test_system": "primary endothelial cells of porcine coronary vessels", "assay": "In vitro effect of arsenic trioxide on primary porcine coronary endothelial cells (total cell number)", "format": "cell-based", "from_the_text": "as §1"}, "VSMCs": {"test_system": "VSMCs", "conditions": "Li Hui et al. 2010; cited from earlier work"}, "[3]": {"conditions": "cited from earlier work"}},
  "data": [
    {"substance": "arsenic trioxide", "values": [
      {"measurement": "concentration of arsenic trioxide at which smooth muscle cell apoptosis began", "setting": "[1]; from Day 2, decrease in total number of cells (FIG. 1)", "value": 3, "unit": "µM"},
      {"measurement": "pro-apoptotic effect on smooth muscle cells", "setting": "[1]; when it reaches a certain dose", "value": "strong pro-apoptotic effect"},
      {"measurement": "pro-apoptotic effect on endothelial cells", "setting": "[2]", "value": "not obvious"},
      {"measurement": "proliferation of endothelial cells", "setting": "[2]; FIG. 2", "value": "promoting proliferation of endothelial cell to a certain extent"},
      {"measurement": "effect on endothelial cells", "setting": "[2]; at a concentration of 12 μM or below (FIG. 2)", "value": "little effect"},
      {"measurement": "effect on endothelial cell growth", "setting": "[2]; first to the third day upon drug action", "value": "stimulation of growth"},
      {"measurement": "mitochondrial transmembrane potential (Δψm)", "setting": "VSMCs", "value": "could induce a decrease of mitochondrial transmembrane potential"},
      {"measurement": "solubility in common solvents", "setting": "[3]; common (organic) solvents such as ethanol", "value": "cannot be dissolved"},
      {"measurement": "solubility in water", "setting": "[3]; only one crystal form out of three", "value": "slightly soluble"}
    ]}
  ]
}
